Measurements published in patent US20240181091A1, “ORAL DELIVERY OF SILICA/ALUMINOSILICATE NANOPARTICLES” (Cornell University, priority 2021, published 2024).

Test system: Caco-2 monolayer
Type: in vitro ADME, human
Method: To test that the monolayer well resembled the epithelial lining of the GI tract and formed tight junctions, Lucifer Yellow (LY) was used as a standard. It has been reported that the integrity of a Caco-2 monolayer is good once the Papp of LY across the monolayer is <5×10^−7 cm/s. The measured Papp of LY across all Caco-2 monolayers (see Methods for more details) used in this study is depicted in FIG. 8B, with all values of Papp<3×10^−7 cm/s.
Caco-2 Cell Culture: Caco-2 cells (ATCC) were cultured in RPMI 1640 supplemented with 20% fetal bovine serum and 10k/10k penicillin/streptomycin (Lonza). 75 μL of Caco-2 cells were plated on the apical side of a 96-well Transwell dish at a seeding density of 2×10^5 cells/mL. 75 μL of media was used on the apical side and 235 μL on the basolateral side. The media was changed every other day for a week, followed by changes every day until the Papp of a Lucifer Yellow assay was <5×10^−7 cm/s. Cells were incubated at 37° C. with 5% CO2 and 90% humidity.
Lucifer Yellow Monolayer Integrity Assay: Lucifer Yellow (LY) was dissolved at a concentration of 0.1 mg/mL in Hank's balanced salt solution (HBSS). 75 μL of LY solution was added to the apical side and 235 μL HBSS was added to the basolateral side. […] The concentration of LY on the basolateral side was determined using fluorescence 488/520 ex/em with a Spectramax M2. […]

For Lucifer Yellow [LY], the “Papp of Lucifer Yellow across Caco-2 monolayers” value was under 0.3 ×10⁻⁶ cm/s.
